Source: US11013730B1, “Composition comprising selenazol or thiazalone derivatives and silver and method of treatment therewith” (Thioredoxin Systems AB, priority 2014, dated 2021)
≈ marks a conversion by molar mass, not a printed value. Where two headings read alike, the source gives them in different places.

Tests used:
E. coli TrxR [1] = biological target: T1, E. coli TrxR (Escherichia coli, UniProt P0A9P4); assay: E. coli TrxR inhibition, thioredoxin dependent DTNB reduction assay; assay type: biochemical
T1 sequence (P0A9P4 whole entry): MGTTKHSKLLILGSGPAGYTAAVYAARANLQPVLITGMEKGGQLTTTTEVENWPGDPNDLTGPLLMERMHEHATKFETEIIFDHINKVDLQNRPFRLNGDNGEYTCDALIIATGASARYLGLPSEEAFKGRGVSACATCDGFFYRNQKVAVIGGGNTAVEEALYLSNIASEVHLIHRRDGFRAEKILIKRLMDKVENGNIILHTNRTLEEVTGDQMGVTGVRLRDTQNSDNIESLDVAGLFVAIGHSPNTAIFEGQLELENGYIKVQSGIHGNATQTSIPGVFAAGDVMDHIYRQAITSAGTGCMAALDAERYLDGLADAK
Description: Further we examined the effect of ebselen in the reduction of disulfide by E. coli Trx and TrxR using both DTNB and insulin as substrates.
All the benzisoselenazol-3(2H)-one and bisbenzisoselenazol-3(2H)-one derivatives were tested as potential E. coli TrxR inhibitors by standard DTNB assay. […] The reactions were started by adding 1 mM DTNB to the mixture of 100 nM TrxR, 2 μM Trx, 240 μM NADPH, and different concentration of inhibitor (1-40 μM). […] The reactions were started by adding 6 nM TrxR at room temperature. Inhibition constants (Ki) for all the compounds were measured from Dixon plot, which plots 1/v versus […], I=Inhibitor concentration).

recombinant rat TrxR = biological target: T2, recombinant rat TrxR (Rattus norvegicus, UniProt O89049); assay: Inhibition of mammalian (recombinant rat) TrxR
T2 sequence (O89049 1-499): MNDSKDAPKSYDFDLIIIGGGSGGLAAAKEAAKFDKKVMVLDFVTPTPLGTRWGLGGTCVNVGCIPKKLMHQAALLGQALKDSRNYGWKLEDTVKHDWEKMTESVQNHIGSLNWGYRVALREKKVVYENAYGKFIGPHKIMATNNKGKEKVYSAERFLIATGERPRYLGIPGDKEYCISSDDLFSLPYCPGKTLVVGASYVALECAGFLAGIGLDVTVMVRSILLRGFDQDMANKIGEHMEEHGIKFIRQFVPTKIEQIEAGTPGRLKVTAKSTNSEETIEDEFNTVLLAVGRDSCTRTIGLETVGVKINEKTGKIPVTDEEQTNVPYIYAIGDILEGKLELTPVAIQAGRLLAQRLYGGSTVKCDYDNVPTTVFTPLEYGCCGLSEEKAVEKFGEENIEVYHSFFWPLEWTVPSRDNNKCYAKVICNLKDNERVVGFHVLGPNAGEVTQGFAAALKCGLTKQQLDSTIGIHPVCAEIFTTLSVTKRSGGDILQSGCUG

[2] = Glutathione peroxidase (GPx) activity of the compounds; assay type: biochemical; conditions: for Relative GPx activity: EbSe 6 = 1
Gor DHB4 E. coli = assay: Inhibition of bacterial growth (MIC), Gor DHB4 E. coli; conditions: for MIC: Escherichia coli, DHB4E.COLI, read-out: MIC for Gor DHB4 E. coli
Description: (§1) Here E. coli DHB4 strains wt, gshA^−, gor^−, oxyR^− were used as the model to test the antibiotics activity of these ebselen derivatives.

gshA^− DHB4 E. coli = assay: Inhibition of bacterial growth (MIC), gshA^− DHB4 E. coli; conditions: for MIC: Escherichia coli, read-out: MIC for gshA^− DHB4 E. coli; for sensitivity of gshA^− / gor^− strains compared with wild type: E. coli strains wt
Description: as §1

HEK 293T cells = HEK 293T cells growth (cytotoxicity); assay type: cell-based
wild type DHB4 E. coli = assay: Inhibition of bacterial growth (MIC), wild type DHB4 E. coli; conditions: for MIC: Escherichia coli, DHB4E.COLI, read-out: MIC for wild type DHB4 E. coli
Description: as §1

E. coli Trx-(SH)2 = E. coli Trx-(SH)2 (Escherichia coli, UniProt P0AA25); conditions: fluorescence spectroscopy, ref (32); cited from earlier work
E. coli Trx-(SH)2, sequence (P0AA25 whole entry): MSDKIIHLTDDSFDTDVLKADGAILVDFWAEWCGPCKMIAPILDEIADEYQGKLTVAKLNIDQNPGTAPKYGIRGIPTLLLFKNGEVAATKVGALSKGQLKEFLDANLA

E. coli TrxR [3] = biological target: T1, E. coli TrxR; assay: E. coli TrxR inhibition, thioredoxin dependent DTNB reduction assay; assay type: biochemical; conditions: Lineweaver-Burk plots, reduction of DTNB; read-out: Ki (dissociation constant of inhibitor-TrxR complex), competitive inhibition of E. coli TrxR
Mammalian TrxR = biological target: T3, Mammalian TrxR (Homo sapiens, UniProt Q16881); conditions: from ref (3) / (32); cited from earlier work
T3 sequence (Q16881 151-649 limits assumed): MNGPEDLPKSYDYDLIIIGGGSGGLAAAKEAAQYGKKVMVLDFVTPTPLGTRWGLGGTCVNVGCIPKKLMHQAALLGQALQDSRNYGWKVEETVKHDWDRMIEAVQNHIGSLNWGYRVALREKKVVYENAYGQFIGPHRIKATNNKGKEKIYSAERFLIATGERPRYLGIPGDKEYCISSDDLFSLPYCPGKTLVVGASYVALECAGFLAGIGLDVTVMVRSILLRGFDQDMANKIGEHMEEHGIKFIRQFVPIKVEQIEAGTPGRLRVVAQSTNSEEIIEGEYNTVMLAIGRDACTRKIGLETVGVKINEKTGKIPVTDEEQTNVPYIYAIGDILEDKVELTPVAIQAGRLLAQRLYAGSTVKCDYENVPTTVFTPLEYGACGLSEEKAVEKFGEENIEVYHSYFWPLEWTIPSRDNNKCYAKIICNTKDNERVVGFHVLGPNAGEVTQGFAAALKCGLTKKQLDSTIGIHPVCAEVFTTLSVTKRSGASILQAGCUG

H. pylori strains = assay: MIC against H. pylori strains; conditions: Helicobacter pylori
[4] = DTNB assay, 100 nM TrxR, 2 μM Trx, 240 μM NADPH, 1 mM DTNB, read-out: IC50 for E. coli TrxR
[5] = Dixon plot, 6 nM TrxR, Trx 1, 2 or 4 μM, read-out: Ki for E. coli TrxR
[6] = Homo sapiens, HEK-293T; read-out: IG50 for HEK 293T
[7] = Homo sapiens, HEK-293T, read-out: IG50 for HEK 293T
[8] = Dixon plot, 6 nM TrxR, Trx 1, 2 or 4 μM

Compound | IC50 (E. coli TrxR [1]; [4]) | Ki (E. coli TrxR [1]; [5]) | IC50 (recombinant rat TrxR) | Relative GPx activity [2] | MIC (Gor DHB4 E. coli) | MIC (gshA^− DHB4 E. coli) | IC50 (HEK 293T cells; [6]) | MIC (wild type DHB4 E. coli) | other results
O=c1c2ccccc2[se]n1-c1ccc(Cl)cc1 [EbSe 7] | 7 µM | 0.55 µM | > 10 µM | 0.64 | 23 µM (≈ 7.1 µg/mL) | 20 µM (≈ 6.17 µg/mL) | 120 µM | 34 µM (≈ 10.5 µg/mL) | 
Cc1cc(Cl)ccc1-n1[se]c2ccccc2c1=O [EbSe 8] | 6 µM | 0.25 µM | > 10 µM | 0.67 | 24 µM (≈ 7.74 µg/mL) | 13 µM (≈ 4.19 µg/mL) | 80 µM | 47 µM (≈ 15.2 µg/mL) | 
O=c1c2ccccc2[se]n1-c1ccccc1[N+](=O)[O-] [EbSe 12] | 3 µM | 0.25 µM | > 10 µM | 0.93 |  |  |  |  | GPx activity (in words) [2]: no GPx activity; MIC for Gor DHB4 E. coli (Gor DHB4 E. coli): No Inhibition; MIC for gshA^− DHB4 E. coli (gshA^− DHB4 E. coli): No Inhibition; sensitivity of gshA^− / gor^− strains compared with wild type (gshA^− DHB4 E. coli): same sensitivity; IC50 (HEK 293T cells; [7]): 80 µM; MIC for wild type DHB4 E. coli (wild type DHB4 E. coli): No Inhibition
O=c1c2cccnc2[se]n1-c1ccc(Cl)cc1 [EbSe19] | 3 µM | 0.5 µM |  |  |  |  |  |  | 
O=c1c2ccccc2[se]n1-c1ccc(Cl)cc1 [EbSe 11] |  |  |  | 0.87 |  |  |  |  | IC50 (E. coli TrxR [1]): > 40 µM; Ki (E. coli TrxR [1]): 0.3 µM; Ki for E. coli TrxR (E. coli TrxR [1]; [8]): Not detected; MIC for Gor DHB4 E. coli (Gor DHB4 E. coli): No Inhibition; MIC for gshA^− DHB4 E. coli (gshA^− DHB4 E. coli): No Inhibition; IC50 (HEK 293T cells; read-out: IG50 for HEK 293T): > 160 µM; MIC for wild type DHB4 E. coli (wild type DHB4 E. coli): No Inhibition
O=C(O)c1ccccc1-n1[se]c2ccccc2c1=O [EbSe 9] | 7.5 µM | 1.2 µM | 0.8 µM | 2.1 | 31 µM (≈ 9.86 µg/mL) | 24 µM (≈ 7.64 µg/mL) | > 160 µM | 49 µM (≈ 15.6 µg/mL) | 
CC(C)(C)n1[se]c2ccccc2c1=O [EbSe 4] | 15 µM |  | > 10 µM | 1.1 |  |  | 75 µM |  | Ki for E. coli TrxR (E. coli TrxR [1]; [8]): Not detected; inhibition of mammalian TrxR (in words) (recombinant rat TrxR): some activity
O=C(Nc1ccccc1)c1ccccc1[Se][Se]c1ccccc1C(=O)Nc1ccccc1 [(EbSe)2] |  |  |  |  |  |  |  |  | inhibition of E. coli TrxR (in words) (E. coli TrxR [1]): strongly inhibited; second-order rate constant of direct reduction by reduced E. coli Trx (E. coli Trx-(SH)2): 1700 M⁻¹ s⁻¹; Ki (E. coli TrxR [3]): 0.46 ± 0.05 µM; Km (Mammalian TrxR): 40 µM; kcat, mammalian TrxR (Mammalian TrxR): 1.32 s⁻¹
Cc1ncc([N+](=O)[O-])n1CCO [metronidazole] |  |  |  |  |  |  |  |  | MIC (H. pylori strains): 6.25 µg/mL (≈ 36.5 µM); MIC (H. pylori strains; NCTC11637): 0.78 µg/mL (≈ 4.56 µM)
O=c1[nH][se]c2ccccc12 [EbSe 2] | 15 µM | 1 µM | > 10 µM | 0.97 |  |  | 95 µM |  | Ki for E. coli TrxR (E. coli TrxR [1]; [8]): Not detected
O=c1c2ccccc2[se]n1CCCCCCn1[se]c2ccccc2c1=O [EbSe 16] | 2.25 µM | 0.025 µM |  |  | 35 µM (≈ 16.7 µg/mL) | 20 µM (≈ 9.57 µg/mL) |  | 20 µM (≈ 9.57 µg/mL) | Ki (E. coli TrxR [1]; for the selenium released stock, read-out: Ki for E. coli TrxR, selenium released stock): 0.01 µM; sensitivity of gshA^− / gor^− strains compared with wild type (gshA^− DHB4 E. coli): same sensitivity; IC50 (HEK 293T cells; [7]): 9.2 µM
